Consider 35 compounds from patent US9102688B2, “Sulfonaminoquinoline hepcidin antagonists” (Vifor (International) AG, priority 2011, dated 2015).

The term IC50 denotes the concentration needed to halve the response being measured. Read a low IC50 as higher potency.

In the test the target is T1, human ferroportin (Homo sapiens, UniProt Q9NP59).
T1 construct: expressed in transfected cells
T1 sequence (Q9NP59 1-571): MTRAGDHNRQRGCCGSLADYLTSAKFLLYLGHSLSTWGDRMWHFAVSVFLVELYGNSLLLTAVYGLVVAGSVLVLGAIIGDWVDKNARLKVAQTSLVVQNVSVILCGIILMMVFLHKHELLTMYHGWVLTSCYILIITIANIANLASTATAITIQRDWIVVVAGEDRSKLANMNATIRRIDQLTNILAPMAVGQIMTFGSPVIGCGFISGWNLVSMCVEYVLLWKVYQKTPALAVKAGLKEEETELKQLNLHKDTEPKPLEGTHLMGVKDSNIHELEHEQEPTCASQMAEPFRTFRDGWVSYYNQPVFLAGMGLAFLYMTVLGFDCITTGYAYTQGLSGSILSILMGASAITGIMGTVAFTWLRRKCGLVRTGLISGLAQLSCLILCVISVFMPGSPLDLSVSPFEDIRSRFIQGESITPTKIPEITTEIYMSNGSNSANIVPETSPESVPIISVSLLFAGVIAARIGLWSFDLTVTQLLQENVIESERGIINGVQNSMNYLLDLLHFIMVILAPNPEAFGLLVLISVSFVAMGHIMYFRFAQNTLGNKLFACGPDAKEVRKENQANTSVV
Nature of the test: ferroportin internalization assay (inhibition of hepcidin-induced internalization of Fpn). It counts as cell-based. The settings on record: MDCK-FPN-HaloTag cells, 100 nM hepcidin, overnight incubation; concentration range from 0.04 to 40 μM. Put shortly: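 MDCK cells stably expressing human ferroportin–HaloTag were labelled with TMR ligand, then incubated overnight at 37 °C with compound plus 100 nM hepcidin (final). After fixation and nuclear staining, confocal imaging quantified membrane Fpn fluorescence to measure blocking of hepcidin-induced internalization.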
The compound `Cc1cc2c(cc1F)-c1ccc3cccnc3c1NS2(=O)=O` [Example 331, 9-Fluoro-8-methyl-5H-6-thia-4,5-diaza-chrysene 6,6-dioxide] had an IC50 of 3240 nM.
As for `O=S1(=O)Nc2c(ccc3cccnc23)-c2ccc(C(F)(F)F)cc21` [Example 332, 8-Trifluoromethyl-5H-6-thia-4,5-diaza-chrysene 6,6-dioxide], the IC50 is 2340 nM.
As for `O=S1(=O)Nc2c(ccc3cccnc23)-c2cc(OC(F)(F)F)ccc21` [Example 333, 9-Trifluoromethoxy-5H-6-thia-4,5-diaza-chrysene 6,6-dioxide], the figure is 1170 nM.
Consider `O=S1(=O)Nc2c(cc(Cl)c3cccnc23)-c2cc(C(F)(F)F)ccc21` [Example 334, 12-Chloro-9-trifluoromethyl-5H-6-thia-4,5-diaza-chrysene 6,6-dioxide], for which 6250 nM corresponded to half-maximal inhibition (IC50).
`Cc1cccc2c1S(=O)(=O)Nc1c-2ccc2cccnc12` [Example 335, 7-Methyl-5H-6-thia-4,5-diaza-chrysene 6,6-dioxide] gave a half-maximal inhibitory concentration (IC50) of 3880 nM.
For the compound `CN1C(c2ccc(F)cc2)c2ccc3cccnc3c2NS1(=O)=O` (centres unmarked) [Example 382, 1-(4-Fluoro-phenyl)-2-methyl-1,4-dihydro-2H-3-thia-2,4,5-triaza-phenanthrene 3,3-dioxide], the IC50 is 340 nM.
In turn, `Cc1ccc(C2c3ccc4cccnc4c3NS(=O)(=O)N2C)cc1` (centres unmarked) [Example 383, 2-Methyl-1-p-tolyl-1,4-dihydro-2H-3-thia-2,4,5-triaza-phenanthrene 3,3-dioxide] registered an IC50 of 600 nM.
`COc1ccccc1C1c2ccc3cccnc3c2NS(=O)(=O)N1C` (centres unmarked) [Example 384, 1-(2-Methoxy-phenyl)-2-methyl-1,4-dihydro-2H-3-thia-2,4,5-triaza-phenanthrene 3,3-dioxide] displayed a 50% inhibitory concentration (IC50) of 1870 nM.
`CN1C(c2ccc(C(F)(F)F)cc2)c2ccc3cccnc3c2NS1(=O)=O` (centres unmarked) [Example 385, 2-Methyl-1-(4-trifluoromethyl-phenyl)-1,4-dihydro-2H-3-thia-2,4,5-triaza-phenanthrene 3,3-dioxide]: the midpoint of inhibition, the IC50, lay at 1370 nM.
Turning to `CN1C(c2ccc(C(F)(F)F)nc2)c2ccc3cccnc3c2NS1(=O)=O` (centres unmarked) [Example 386, 2-Methyl-1-(6-trifluoromethyl-pyridin-3-yl)-1,4-dihydro-2H-3-thia-2,4,5-triaza-phenanthrene 3,3-dioxide], 960 nM corresponded to half-maximal inhibition (IC50).
The compound `CN1C(c2ccncc2F)c2ccc3cccnc3c2NS1(=O)=O` (centres unmarked) [Example 387, 1-(3-Fluoro-pyridin-4-yl)-2-methyl-1,4-dihydro-2H-3-thia-2,4,5-triaza-phenanthrene 3,3-dioxide] yielded an IC50 of 1600 nM.
The compound `CN1C(c2ccc(F)cn2)c2ccc3cccnc3c2NS1(=O)=O` (centres unmarked) [Example 388, 1-(5-Fluoro-pyridin-2-yl)-2-methyl-1,4-dihydro-2H-3-thia-2,4,5-triaza-phenanthrene 3,3-dioxide] showed an IC50 of 1570 nM.
In the case of `CN1C(c2cccc(F)c2)c2ccc3cccnc3c2NS1(=O)=O` (centres unmarked) [Example 389, 1-(3-Fluoro-phenyl)-2-methyl-1,4-dihydro-2H-3-thia-2,4,5-triaza-phenanthrene 3,3-dioxide] it was 720 nM; in that of `COc1ccc(C2c3ccc4cccnc4c3NS(=O)(=O)N2C)cc1` (centres unmarked) [Example 390, 1-(4-Methoxy-phenyl)-2-methyl-1,4-dihydro-2H-3-thia-2,4,5-triaza-phenanthrene 3,3-dioxide], 2240 nM.
In turn, `CN1C(c2ccc(F)c(Cl)c2)c2ccc3cccnc3c2NS1(=O)=O` (centres unmarked) [Example 391, 1-(3-Chloro-4-fluoro-phenyl)-2-methyl-1,4-dihydro-2H-3-thia-2,4,5-triaza-phenanthrene 3,3-dioxide] showed an IC50 of 3700 nM.
`CN1C(c2ccc(F)c(F)c2)c2ccc3cccnc3c2NS1(=O)=O` (centres unmarked) [Example 392, 1-(3,4-Difluoro-phenyl)-2-methyl-1,4-dihydro-2H-3-thia-2,4,5-triaza-phenanthrene 3,3-dioxide] had an IC50 of 250 nM.
For the compound `CN1C(c2ccc(OC(F)(F)F)cc2)c2ccc3cccnc3c2NS1(=O)=O` (centres unmarked) [Example 393, 2-Methyl-1-(4-trifluoromethoxy-phenyl)-1,4-dihydro-2H-3-thia-2,4,5-triaza-phenanthrene 3,3-dioxide], half-maximal inhibition (IC50) required 1150 nM.
For `COc1ccc(C2c3ccc4cccnc4c3NS(=O)(=O)N2C)c(OC)c1` (centres unmarked) [Example 394, 1-(2,4-Dimethoxy-phenyl)-2-methyl-1,4-dihydro-2H-3-thia-2,4,5-triaza-phenanthrene 3,3-dioxide], the midpoint of inhibition, the IC50, lay at 1070 nM.
As for `Cc1cc(F)ccc1C1c2ccc3cccnc3c2NS(=O)(=O)N1C` (centres unmarked) [Example 395, 1-(4-Fluoro-2-methyl-phenyl)-2-methyl-1,4-dihydro-2H-3-thia-2,4,5-triaza-phenanthrene 3,3-dioxide], the figure is 1500 nM; as for `COc1ccc(C2c3ccc4cccnc4c3NS(=O)(=O)N2C)cc1F` (centres unmarked) [Example 396, 1-(3-Fluoro-4-methoxy-phenyl)-2-methyl-1,4-dihydro-2H-3-thia-2,4,5-triaza-phenanthrene 3,3-dioxide], 1480 nM; as for `O=S1(=O)Nc2c(ccc3cccnc23)C(c2ccc(F)cc2)N1` (centres unmarked) [Example 398, 1-(4-Fluoro-phenyl)-1,4-dihydro-2H-3-thia-2,4,5-triaza-phenanthrene 3,3-dioxide], 2780 nM.
Compound `CN1C(c2ccc(F)cc2)c2cc(Cl)c3cccnc3c2NS1(=O)=O` (centres unmarked) [Example 401, 9-Chloro-1-(4-fluoro-phenyl)-2-methyl-1,4-dihydro-2H-3-thia-2,4,5-triaza-phenanthrene 3,3-dioxide] yielded an IC50 of 12500 nM.
In turn, `CC(=O)c1cc2c(c3ncccc13)NS(=O)(=O)N(C)C2c1ccc(F)cc1` (centres unmarked) [Example 402, 1-[1-(4-Fluoro-phenyl)-2-methyl-3,3-dioxo-1,2,3,4-tetrahydro-3λ*6*-thia-2,4,5-triaza-phenanthren-9-yl]-ethanone] registered an IC50 of 250 nM.
`CC(O)c1cc2c(c3ncccc13)NS(=O)(=O)N(C)C2c1ccc(F)cc1` (centres unmarked) [Example 403, 1-[1-(4-Fluoro-phenyl)-2-methyl-3,3-dioxo-1,2,3,4-tetrahydro-3λ*6*-thia-2,4,5-triaza-phenanthren-9-yl]-ethanol]: the IC50 is 2370 nM.
In turn, `CN1Cc2ccc3cccnc3c2NS1(=O)=O` [Example 405, 2-Methyl-1,4-dihydro-2H-3-thia-2,4,5-triaza-phenanthrene 3,3-dioxide] showed an IC50 of 6500 nM.
For `CCC1c2ccc3cccnc3c2NS(=O)(=O)N1C` (centres unmarked) [Example 412, 1-Ethyl-2-methyl-1,4-dihydro-2H-3-thia-2,4,5-triaza-phenanthrene 3,3-dioxide], the IC50 worked out at 2220 nM.
In turn, `CC1c2ccc3cccnc3c2NS(=O)(=O)N1C` (centres unmarked) [Example 413, 1,2-Dimethyl-1,4-dihydro-2H-3-thia-2,4,5-triaza-phenanthrene 3,3-dioxide] had an IC50 of 4690 nM.
`CN1C(c2ccc(F)c(C(=O)O)c2)c2ccc3cccnc3c2NS1(=O)=O` (centres unmarked) [Example 424, 2-Fluoro-5-(2-methyl-3,3-dioxo-1,2,3,4-tetrahydro-3λ*6*-thia-2,4,5-triaza-phenanthren-1-yl)-benzoic acid] registered an IC50 of 5430 nM.
`CN(C)CCNCc1cc(C2c3ccc4cccnc4c3NS(=O)(=O)N2C)ccc1F` (centres unmarked) [Example 425, N′-[2-Fluoro-5-(2-methyl-3,3-dioxo-1,2,3,4-tetrahydro-3λ*6*-thia-2,4,5-triaza-phenanthren-1-yl)-benzyl]-N,N-dimethyl-ethane-1,2-diamine]: inhibition was half-maximal at 7410 nM (IC50).
Consider `CN1C(c2ccc(F)c(CNCCN3CCOCC3)c2)c2ccc3cccnc3c2NS1(=O)=O` (centres unmarked) [Example 426, [2-Fluoro-5-(2-methyl-3,3-dioxo-1,2,3,4-tetrahydro-3λ*6*-thia-2,4,5-triaza-phenanthren-1-yl)-benzyl]-(2-morpholin-4-yl-ethyl)-amine], for which half-maximal inhibition (IC50) required 8560 nM.
As for `CN1C(c2ccc(F)c(CN3CCNCC3)c2)c2ccc3cccnc3c2NS1(=O)=O` (centres unmarked) [Example 427, 1-(4-Fluoro-3-piperazin-1-ylmethyl-phenyl)-2-methyl-1,4-dihydro-2H-3-thia-2,4,5-triaza-phenanthrene 3,3-dioxide], the figure is 4490 nM; as for `CN1C(c2ccc(F)c(C(=O)N3CCOCC3)c2)c2ccc3cccnc3c2NS1(=O)=O` (centres unmarked) [Example 428, [2-Fluoro-5-(2-methyl-3,3-dioxo-1,2,3,4-tetrahydro-3λ*6*-thia-2,4,5-triaza-phenanthren-1-yl)-phenyl]-morpholin-4-yl-methanone], 2620 nM; as for `CN(C)CCNC(=O)c1cc(C2c3ccc4cccnc4c3NS(=O)(=O)N2C)ccc1F` (centres unmarked) [Example 429, N-(2-Dimethylamino-ethyl)-2-fluoro-5-(2-methyl-3,3-dioxo-1,2,3,4-tetrahydro-3λ*6*-thia-2,4,5-triaza-phenanthren-1-yl)-benzamide], 7460 nM.
The compound `O=S1(=O)Nc2c(ccc3c(-n4cccn4)ccnc23)-c2ccccc21` [Example 494, 1-Pyrazol-1-yl-5H-6-thia-4,5-diaza-chrysene 6,6-dioxide] came in with a half-inhibitory concentration (IC50) of 3530 nM.
Compound `CN(C)c1ccc2c(c1)-c1ccc3cccnc3c1NS2(=O)=O` [Example 502, (6,6-Dioxo-5,6-dihydro-6λ*6*-thia-4,5-diaza-chrysen-9-yl)-dimethyl-amine] had an IC50 of 910 nM.
